Data reported in article PMC7369900 (International Journal of Molecular Sciences, 2020).

Columns and labels:
Test in all cases: cells
HEK 293 = assay type: cell-based, human; conditions: HEK 293, 72 h, MTT
Procedure: (§1) Among the conjugates, LVXC-S-S-CTP10-NH2 (5) was the least cytotoxic. […] In the case of HEK 293 and LLC-PK1 cells, the IC50 values of 5 were nearly four times higher. […] Additionally, we noted that the cancer cells Hep G2 were less sensitive to the action of the given compounds than the non-cancer cells (HEK 293 and LLC-PK1).
(§2) Cytotoxicity was assessed against three mammalian cell lines: LLC-PK1, Hep G2, and HEK 293. Multiwell (96–well) plates were seeded at 7000 cells/well in Medium 199 supplemented with 7.5% FBS, MEM Eagle’s medium supplemented with 10% FBS, or DMEM medium supplemented with 10% FBS, respectively. All media were supplemented with L-glutamine and antibiotics (penicillin/streptomycin). Cells were allowed to attach overnight. Drugs were dissolved in cell culture medium and added to wells in 100-µL aliquots of 2× concentrated solutions, in triplicates. To control wells, 100 µL of the medium were added. Cells were incubated with the studied compounds for 72 h at 37 °C and 95%/5% or 90%/10% (HEK 293 cells) CO2 atmosphere. Then, 20-µL aliquots of MTT solution in PBS (4 mg/mL) were added to all wells and plates were incubated further for 3 h in 37 °C. Formazan crystals formed were dissolved in 100 µL of DMSO and the absorbance of the solutions was measured using a multiwell plate reader (Spark, Tecan, Männedorf, Switzerland) at λ = 540 nm. Cytotoxicity was determined compared to the drug-free control. All experiments were performed in triplicates.

Hep G2 = assay type: cell-based, human; conditions: Hep G2, 72 h, MTT
Procedure: as §1, §2

LLC-PK1 = assay type: cell-based, pig; conditions: LLC-PK1, 72 h, MTT
Procedure: as §1, §2

CC[C@H](C)[C@H](NC(=O)[C@H](CCCCN)NC(=O)[C@H](CCCCN)NC(=O)[C@H](C)NC(=O)[C@H](CC(C)C)NC(=O)[C@H](C)NC(=O)[C@H](C)NC(=O)[C@H](CC(C)C)NC(=O)[C@H](C)NC(=O)[C@H](CCCCN)NC(=O)[C@H](CC(C)C)NC(=O)[C@H](CC(N)=O)NC(=O)[C@@H](NC(=O)[C@H](CCCCN)NC(=O)CNC(=O)[C@H](CC(C)C)NC(=O)[C@H](CC(C)C)NC(=O)[C@H](Cc1ccc(O)cc1)NC(=O)CNC(=O)[C@H](C)NC(=O)[C@@H](N)CS)[C@@H](C)CC)C(=O)N[C@@H](CC(C)C)C(N)=O [CTP10-NH2]
IC50 (HEK 293): 19.5 ± 2.93 µM | IC50 (Hep G2): 60 ± 5.75 µM | IC50 (LLC-PK1): 51.6 ± 8.66 µM
